The values that follow are results of earlier work, collected in patent US10751328B2, “Therapy for chronic idiopathic urticaria, anaphylaxis and angioedema” (priority 2013, dated 2020).

The test system of series [1] is chronic idiopathic urticaria symptoms. The settings on record: patients with chronic idiopathic urticaria symptomatic despite approved doses of H1-antihistamines; 139 patients.
Series [2] concerns wheal and flare reaction. The conditions noted are these: versus histamine.
Series [3] deals with white blood cell counts (eosinophil, basophils). The settings on record: ALS subjects, 150 mg twice daily up to 18 months, monthly CBCs; FIGS. 1 to 4 (prior art poster).
The conditions of series [4]: dihydrochloride monohydrate salt, crystalline.

Consider “omalizumab: agent effective in chronic idiopathic urticaria through its reduction of FcεRI function in basophils and mast cells”, for which the effect on symptoms result in series [1] was “beneficial effects on symptoms”. With `CCCCC/C=C\C\C=C/C=C/C=C/[C@@H](SC[C@H](NC(=O)CC[C@H](N)C(=O)O)C(=O)NCC(=O)O)[C@@H](O)CCCC(=O)O` [LTC4, leukotriene C4], the “potency relative to histamine in causing wheal and flare reaction” value in series [2] is reported as “about 1,000 times”. As for `CCCN[C@@H]1CCc2nc(N)sc2C1` [Dexpramipexole, (6R)-4,5,6,7-tetrahydro-N6-propyl-2,6 benzothiazole diamine], the “effect on white blood cell counts” value in series [3] was “reduce white blood cell counts, especially eosinophil and basophils”. On to `CCCN[C@H]1CCc2nc(N)sc2C1` [pramipexole, (6S)-2-amino-4,5,6,7-tetrahydro-6-(propylamino)benzothiazole], for which the solubility in water result in series [4] was “extremely well soluble in water”.
